Data set [1] is described as follows: Metabolic stability in human hepatocyte assessed as intrinsic clearance measured per 10^6 cells. It counts as ADME, cell-based. Particulars: hepatocytes, read-out: CLH.
Data set [2] addresses GABA-A receptor; alpha-1/beta-3/gamma-2 (Homo sapiens) (UniProt P14867+P18507+P28472). The data set can be described thus: Negative allosteric modulation activity at human recombinant alpha1beta3gamma2 GABAA receptor stably expressed in HEK293 cells assessed as modulation at alpha5 subunit by Patch clamp method. It counts as cell-based. Particulars: filed as negative allosteric modulator.

For data set [3], the target named is T1, GABA-A receptor; alpha-5/beta-3/gamma-2 (Homo sapiens, UniProt P18507+P28472+P31644).
T1 sequence (P18507 whole entry): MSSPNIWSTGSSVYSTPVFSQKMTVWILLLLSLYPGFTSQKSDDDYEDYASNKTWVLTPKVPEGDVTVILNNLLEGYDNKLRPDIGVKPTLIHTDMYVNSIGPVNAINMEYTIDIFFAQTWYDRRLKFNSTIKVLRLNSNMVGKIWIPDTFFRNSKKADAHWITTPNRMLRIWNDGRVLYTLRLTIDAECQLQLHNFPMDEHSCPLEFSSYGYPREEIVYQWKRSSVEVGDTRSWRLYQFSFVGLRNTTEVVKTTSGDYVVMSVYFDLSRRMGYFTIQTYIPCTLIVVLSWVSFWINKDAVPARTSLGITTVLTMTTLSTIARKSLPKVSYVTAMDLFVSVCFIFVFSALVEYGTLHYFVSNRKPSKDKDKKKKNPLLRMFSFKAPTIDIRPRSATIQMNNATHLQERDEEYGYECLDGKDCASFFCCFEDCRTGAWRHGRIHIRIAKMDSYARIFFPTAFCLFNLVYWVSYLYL
T1 sequence (P28472 whole entry): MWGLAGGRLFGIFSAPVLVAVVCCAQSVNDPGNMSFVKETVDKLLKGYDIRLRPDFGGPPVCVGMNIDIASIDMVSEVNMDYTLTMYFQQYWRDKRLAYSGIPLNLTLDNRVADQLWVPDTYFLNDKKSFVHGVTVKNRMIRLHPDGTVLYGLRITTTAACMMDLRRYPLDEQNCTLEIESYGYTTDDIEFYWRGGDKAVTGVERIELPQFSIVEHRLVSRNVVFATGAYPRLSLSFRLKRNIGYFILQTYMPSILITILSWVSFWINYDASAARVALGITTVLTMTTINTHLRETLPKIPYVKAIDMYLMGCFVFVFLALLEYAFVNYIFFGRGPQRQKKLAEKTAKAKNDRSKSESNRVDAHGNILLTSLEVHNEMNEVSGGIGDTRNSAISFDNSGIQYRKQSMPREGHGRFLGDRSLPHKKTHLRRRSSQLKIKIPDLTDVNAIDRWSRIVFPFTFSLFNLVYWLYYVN
T1 sequence (P31644 whole entry): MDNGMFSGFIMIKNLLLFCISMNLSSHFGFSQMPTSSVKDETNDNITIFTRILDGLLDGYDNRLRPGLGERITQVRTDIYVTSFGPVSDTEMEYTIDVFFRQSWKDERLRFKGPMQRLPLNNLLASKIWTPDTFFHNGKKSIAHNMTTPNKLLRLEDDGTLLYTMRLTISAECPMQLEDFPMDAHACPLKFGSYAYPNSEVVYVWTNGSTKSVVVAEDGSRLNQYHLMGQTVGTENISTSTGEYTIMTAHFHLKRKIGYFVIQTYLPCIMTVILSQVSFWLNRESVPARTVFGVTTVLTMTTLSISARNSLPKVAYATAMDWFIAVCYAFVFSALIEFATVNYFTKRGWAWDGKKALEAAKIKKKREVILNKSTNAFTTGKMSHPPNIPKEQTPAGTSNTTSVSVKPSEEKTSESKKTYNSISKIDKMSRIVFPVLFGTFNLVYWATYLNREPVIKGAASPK
As to the kind of experiment: Displacement of [3H]Ro151788 from human recombinant alpha5beta3gamma2 GABAA receptor stably expressed in HEK293 cell membrane assessed as inhibition constant by radioligand binding assay. It counts as cell membranes.

Data set [4] addresses GABA-A receptor; alpha-5/beta-3/gamma-2 (Homo sapiens) (UniProt P18507+P28472+P31644). As to the kind of experiment: Negative allosteric modulation activity at human recombinant alpha5beta3gamma2 GABAA receptor stably expressed in HEK293 cells assessed as modulation at alpha5 subunit at 10 uM by Patch clamp method. It counts as cell-based. Particulars: filed as negative allosteric modulator.

Data set [5] in a line: Metabolic stability in human liver microsomes assessed as intrinsic clearance at 2.5 uM. It is filed as ADME, Microsome. Particulars: read-out: CLH.
A short description of data set [6]: Ratio of drug level in brain to plasma in Wistar rat at 3 mg/kg, po measured at 1.5 hr post dose. It counts as ADME, organism-based. Particulars: brain and plasma, read-out: BPR.
A short description of data set [7]: Half life in Wistar rat total plasma at 1 mg/kg, iv by HPLC-MS/MS analysis. It counts as ADME, organism-based.
Data set [8] can be described thus: AUC (0 to infinity) in Wistar rat total plasma at 1 mg/kg, iv by HPLC-MS/MS analysis. The arrangement: time infinity, dose 1 mg/kg, route iv. It is filed as ADME, organism-based.
A short description of data set [9]: Cmax in Wistar rat total plasma at 1 mg/kg, po by HPLC-MS/MS analysis. It is filed as ADME, organism-based. The arrangement: dose 1 mg/kg, route po.
Data set [10] is described as follows: Thermodynamic solubility of the compound at pH 7.4. It is filed as physicochemical. Particulars: buffer, read-out: Therm_solubility.
Data set [11] can be described thus: Metabolic stability in dog hepatocyte assessed as intrinsic clearance measured per 10^6 cells. It is filed as ADME, cell-based, Canis lupus familiaris. Particulars: hepatocytes, read-out: CLH.
The nature of data set [12]: Plasma protein binding in dog. It is filed as ADME, cell-free, Canis lupus familiaris. Particulars: read-out: PPB (converted).
The target in data set [13] is T2, Cytochrome P450 1A2 (Homo sapiens, UniProt P05177).
T2 sequence (P05177 whole entry): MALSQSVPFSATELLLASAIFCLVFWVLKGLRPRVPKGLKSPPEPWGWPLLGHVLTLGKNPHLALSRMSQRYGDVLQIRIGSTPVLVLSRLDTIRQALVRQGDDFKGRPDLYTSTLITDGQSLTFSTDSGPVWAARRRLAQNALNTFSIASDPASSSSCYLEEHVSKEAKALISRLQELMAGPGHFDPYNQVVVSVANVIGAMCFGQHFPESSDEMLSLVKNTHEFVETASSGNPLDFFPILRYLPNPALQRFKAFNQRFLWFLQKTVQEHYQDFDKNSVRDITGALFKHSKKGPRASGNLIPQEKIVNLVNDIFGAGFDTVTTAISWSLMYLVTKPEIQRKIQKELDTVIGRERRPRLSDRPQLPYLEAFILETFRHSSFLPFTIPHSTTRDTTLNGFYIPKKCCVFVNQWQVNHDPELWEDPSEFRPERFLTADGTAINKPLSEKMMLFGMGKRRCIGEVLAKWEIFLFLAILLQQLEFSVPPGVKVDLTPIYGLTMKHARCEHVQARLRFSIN
The data set can be described thus: Inhibition of CYP1A2 (unknown origin). It counts as ADME.

The target in data set [14] is Cytochrome P450 2C9 (Homo sapiens, UniProt P11712). As to the kind of experiment: Inhibition of CYP2C9 (unknown origin). It is filed as ADME.
The test system of data set [15] is Rattus norvegicus. As to the kind of experiment: Pro-cognitive activity in po dosed subchronic PCP-induced cognitive impairment associated schizophrenia Wistar rat model assessed as reversal of PCP-induced cognitive deficit administered 30 mins prior to T1 phase by NOR test. It counts as functional. Particulars: 0.5 h, read-out: MED.
The nature of data set [16]: Cardiovascular toxicity in po dosed dog assessed as NOAEL. Particulars: in vivo. It counts as organism-based, Canis lupus familiaris.
Data set [17] concerns Rattus norvegicus. The data set can be described thus: Pro-cognitive activity in neonatal PCP-impaired social recognition Wistar rat model assessed as time spent in recognition of new juveniles at 3 mg/kg, po administered 30 min before acquisition by social recognition test. It is filed as functional, organism-based.

This is an account of results in ChEMBL document CHEMBL5154916, “Multiparameter Optimization of Naphthyridine Derivatives as Selective α5-GABAA Receptor Negative Allosteric Modulators” (J Med Chem, 2022).

Structures are written as SMILES. Converted amounts (≈) assume the structure as drawn. The source made the active and inactive calls. No cut-off for these calls is given here.

Sequence of Cytochrome P450 2C9 (P11712 whole entry): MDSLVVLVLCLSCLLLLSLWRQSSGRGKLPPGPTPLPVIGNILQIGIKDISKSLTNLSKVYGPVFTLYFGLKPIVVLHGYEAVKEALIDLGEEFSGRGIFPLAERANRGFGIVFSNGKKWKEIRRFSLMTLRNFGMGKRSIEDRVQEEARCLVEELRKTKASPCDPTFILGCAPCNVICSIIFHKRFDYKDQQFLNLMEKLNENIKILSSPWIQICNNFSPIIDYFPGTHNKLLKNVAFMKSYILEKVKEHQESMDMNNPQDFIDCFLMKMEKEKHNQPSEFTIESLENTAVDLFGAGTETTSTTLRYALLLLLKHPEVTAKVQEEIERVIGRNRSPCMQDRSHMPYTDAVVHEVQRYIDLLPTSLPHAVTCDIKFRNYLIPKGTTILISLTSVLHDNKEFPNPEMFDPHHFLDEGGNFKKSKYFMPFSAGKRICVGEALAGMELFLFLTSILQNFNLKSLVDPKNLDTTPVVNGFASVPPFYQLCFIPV

With `Cc1onc(-c2ccc(F)cc2)c1COc1ccc2c(n1)CCN(C(=O)CS(C)(=O)=O)C2`, the hepatocyte CLint in [1] was 3 µL/min/1e6 cells; in [11], 2 µL/min/1e6 cells. Further, the Activity was -41% in data set [2] and -39% in [4]. The Ki in data set [3] was found to be 0.0041 µM. For the same molecule, in data set [5], the microsomal CLint at 2.5 µM was 6 µL/min/mg. Besides, the Kp at 1.5 h in data set [6] was determined as 6.3. Further, in [7], the half-life was 31.8 min. Also, the AUC(0-inf) in [8] was 407 ng·h/mL. The concentration in data set [9] peaked (Cmax) at 115 ng/mL. The solubility thermodynamic in [10] worked out at 0.081 µM (≈ 0.0372 µg/mL). Moreover, the fraction unbound in data set [12] is 0.05. For the same molecule, the IC50 in data set [13] and in [14] was > 50 µM throughout. In [15], the minimal effective dose was 3 mg/kg. The NOAEL in data set [16] is ≥ 70 mg/kg. Also, the result in data set [17] was Active.
